From ChEMBL document CHEMBL1129561 (J Med Chem, 1996)

molecular target: T1, Progesterone receptor (Homo sapiens) (UniProt P06401); conditions: CV-1
T1 sequence (whole entry): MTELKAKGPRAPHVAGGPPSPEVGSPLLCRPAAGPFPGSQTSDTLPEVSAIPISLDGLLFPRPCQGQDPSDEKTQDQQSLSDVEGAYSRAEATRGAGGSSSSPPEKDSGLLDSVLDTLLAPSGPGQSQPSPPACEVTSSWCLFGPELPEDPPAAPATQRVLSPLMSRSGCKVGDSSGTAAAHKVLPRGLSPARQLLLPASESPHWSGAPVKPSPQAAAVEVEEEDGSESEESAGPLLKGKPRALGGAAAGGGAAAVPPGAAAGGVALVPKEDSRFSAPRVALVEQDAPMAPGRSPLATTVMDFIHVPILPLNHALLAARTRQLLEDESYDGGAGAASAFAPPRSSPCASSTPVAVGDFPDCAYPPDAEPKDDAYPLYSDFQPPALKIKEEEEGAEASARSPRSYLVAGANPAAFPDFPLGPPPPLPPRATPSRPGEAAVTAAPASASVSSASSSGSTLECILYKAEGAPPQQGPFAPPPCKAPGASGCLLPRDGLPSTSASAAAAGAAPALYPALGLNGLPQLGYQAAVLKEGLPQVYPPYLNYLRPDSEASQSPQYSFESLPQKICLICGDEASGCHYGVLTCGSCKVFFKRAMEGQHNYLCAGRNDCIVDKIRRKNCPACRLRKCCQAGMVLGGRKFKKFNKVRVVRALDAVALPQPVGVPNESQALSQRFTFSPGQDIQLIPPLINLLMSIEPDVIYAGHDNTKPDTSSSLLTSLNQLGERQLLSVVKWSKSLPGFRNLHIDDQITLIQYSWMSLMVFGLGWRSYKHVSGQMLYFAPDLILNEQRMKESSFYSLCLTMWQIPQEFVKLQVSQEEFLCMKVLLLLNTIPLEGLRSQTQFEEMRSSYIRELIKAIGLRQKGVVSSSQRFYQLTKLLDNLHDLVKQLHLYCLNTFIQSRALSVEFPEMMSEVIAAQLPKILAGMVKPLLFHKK

Row | SMILES | Max inhibition
1 | C=C1C=C(C)CC(C)(C)C1Cc1ccc([N+](=O)[O-])c(C)c1 (stereo not given) | 85%
2 | C=C1CCC[C@@H](C)[C@@H]1Cc1cc(OC)c(Br)cc1O | 62%
3 | C=C1C=C(C)CC(C)(C)C1(O)Cc1ccc([N+](=O)[O-])cc1 (stereo not given) | 87%
4 | C=C1C=C(C)CC(C)(C)C1Cc1cc(OC)c(Br)cc1O (stereo not given) | 37%
5 | C=C1CC[C@@H](Br)C(C)(C)[C@@H]1Cc1cc(OC)c(Br)cc1O | < 20%
6 | C=C1C=C(C)C(Cc2cc(OC)c(Br)cc2O)C(C)(C)C1 (stereo not given) | 66%

molecular target: T2, Androgen receptor (Homo sapiens, UniProt P10275); conditions: not given
T2 sequence (P10275 whole entry): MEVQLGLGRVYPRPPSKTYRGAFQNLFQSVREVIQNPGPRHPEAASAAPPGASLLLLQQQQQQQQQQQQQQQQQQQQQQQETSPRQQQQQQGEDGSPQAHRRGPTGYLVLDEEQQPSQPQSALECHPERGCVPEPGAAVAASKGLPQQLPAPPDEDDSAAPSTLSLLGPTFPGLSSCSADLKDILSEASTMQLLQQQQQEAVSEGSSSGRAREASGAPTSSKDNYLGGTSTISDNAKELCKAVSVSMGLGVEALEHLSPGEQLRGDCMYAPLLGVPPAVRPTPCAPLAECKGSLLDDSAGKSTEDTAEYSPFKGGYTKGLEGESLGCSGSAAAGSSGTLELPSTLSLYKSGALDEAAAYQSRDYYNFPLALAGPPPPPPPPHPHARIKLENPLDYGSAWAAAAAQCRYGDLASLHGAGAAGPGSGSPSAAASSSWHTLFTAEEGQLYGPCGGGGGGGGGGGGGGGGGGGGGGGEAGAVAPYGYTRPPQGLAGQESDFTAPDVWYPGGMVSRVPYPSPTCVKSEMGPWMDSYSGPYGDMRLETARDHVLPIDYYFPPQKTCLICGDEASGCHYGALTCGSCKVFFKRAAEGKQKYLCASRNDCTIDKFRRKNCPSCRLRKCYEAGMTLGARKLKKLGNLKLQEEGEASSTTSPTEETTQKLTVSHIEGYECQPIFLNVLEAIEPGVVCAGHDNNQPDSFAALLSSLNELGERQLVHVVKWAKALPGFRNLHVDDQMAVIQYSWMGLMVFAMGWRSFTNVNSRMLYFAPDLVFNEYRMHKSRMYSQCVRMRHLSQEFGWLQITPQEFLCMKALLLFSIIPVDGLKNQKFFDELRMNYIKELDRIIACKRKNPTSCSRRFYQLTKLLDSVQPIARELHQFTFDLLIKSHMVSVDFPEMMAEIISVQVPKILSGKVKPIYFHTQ

Row | SMILES | IC50
7 | C=C1CC[C@@H](Br)C(C)(C)[C@@H]1Cc1cc(OC)c(Br)cc1O | 238 nM

molecular target: T2, Androgen receptor; conditions: not given; remark: another data set of the same source

Row | SMILES | Ki
8 | C=C1C=C(C)CC(C)(C)C1Cc1ccc([N+](=O)[O-])c(C)c1 (stereo not given) | 2700 nM
9 | C=C1CCC[C@@H](C)[C@@H]1Cc1cc(OC)c(Br)cc1O | 570 nM
10 | C=C1C=C(C)CC(C)(C)C1(O)Cc1ccc([N+](=O)[O-])cc1 (stereo not given) | 6450 nM
11 | C=C1C=C(C)CC(C)(C)C1Cc1cc(OC)c(Br)cc1O (stereo not given) | 1450 nM
12 | C=C1C=C(C)C(Cc2cc(OC)c(Br)cc2O)C(C)(C)C1 (stereo not given) | 1590 nM

molecular target: T3, Progesterone receptor (Homo sapiens, UniProt P06401); conditions: not given
T3 sequence (P06401 whole entry): T1 sequence (whole entry)

Row | SMILES | IC50
13 | C=C1C=C(C)CC(C)(C)C1Cc1ccc([N+](=O)[O-])c(C)c1 (stereo not given) | 1800 nM
14 | C=C1CCC[C@@H](C)[C@@H]1Cc1cc(OC)c(Br)cc1O | 320 nM

molecular target: T3, Progesterone receptor; conditions: not given; remark: another data set of the same source

Row | SMILES | EC50
15 | C=C1CCC[C@@H](C)[C@@H]1Cc1cc(OC)c(Br)cc1O | 3010 nM

molecular target: T4, Glucocorticoid receptor (Homo sapiens, UniProt P04150); experiment: Inhibitory activity against human glucocorticoid receptor (hGR); conditions: not given
T4 sequence (P04150 whole entry): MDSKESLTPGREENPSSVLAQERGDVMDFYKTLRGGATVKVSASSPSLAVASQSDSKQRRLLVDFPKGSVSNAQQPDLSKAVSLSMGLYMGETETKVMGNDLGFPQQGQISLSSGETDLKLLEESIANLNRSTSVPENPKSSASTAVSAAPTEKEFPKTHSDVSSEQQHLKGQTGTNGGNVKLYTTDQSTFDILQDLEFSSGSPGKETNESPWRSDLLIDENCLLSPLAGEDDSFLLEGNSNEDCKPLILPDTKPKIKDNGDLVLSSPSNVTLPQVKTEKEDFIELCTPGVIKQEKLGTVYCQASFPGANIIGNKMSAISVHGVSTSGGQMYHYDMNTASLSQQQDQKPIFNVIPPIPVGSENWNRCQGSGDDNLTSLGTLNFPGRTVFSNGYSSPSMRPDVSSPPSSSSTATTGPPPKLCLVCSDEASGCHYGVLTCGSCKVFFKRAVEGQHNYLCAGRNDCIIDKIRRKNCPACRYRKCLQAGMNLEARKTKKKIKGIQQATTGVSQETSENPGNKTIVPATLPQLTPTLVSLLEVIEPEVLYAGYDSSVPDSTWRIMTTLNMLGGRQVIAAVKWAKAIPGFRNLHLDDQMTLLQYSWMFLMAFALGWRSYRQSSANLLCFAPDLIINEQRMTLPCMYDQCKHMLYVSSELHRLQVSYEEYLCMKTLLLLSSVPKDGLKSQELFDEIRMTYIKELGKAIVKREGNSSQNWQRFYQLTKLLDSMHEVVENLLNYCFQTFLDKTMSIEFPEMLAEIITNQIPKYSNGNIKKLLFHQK

Row | SMILES | IC50
16 | C=C1CC[C@@H](Br)C(C)(C)[C@@H]1Cc1cc(OC)c(Br)cc1O | > 10000 nM

molecular target: T3, Progesterone receptor; conditions: not given; remark: another data set of the same source

Row | SMILES | IC50
17 | C=C1C=C(C)CC(C)(C)C1Cc1ccc([N+](=O)[O-])c(C)c1 (stereo not given) | 510 nM
18 | C=C1CCC[C@@H](C)[C@@H]1Cc1cc(OC)c(Br)cc1O | 200 nM
19 | C=C1CC[C@@H](Br)C(C)(C)[C@@H]1Cc1cc(OC)c(Br)cc1O | 3500 nM

molecular target: T3, Progesterone receptor; conditions: not given; remark: another data set of the same source

Row | SMILES | EC50
20 | C=C1CC[C@@H](Br)C(C)(C)[C@@H]1Cc1cc(OC)c(Br)cc1O | 35 nM

molecular target: Estrogen receptor (Homo sapiens, UniProt Q92731+P03372); conditions: not given

Row | SMILES | IC50
21 | C=C1CC[C@@H](Br)C(C)(C)[C@@H]1Cc1cc(OC)c(Br)cc1O | > 10000 nM

molecular target: T3, Progesterone receptor; conditions: not given; remark: another data set of the same source

Row | SMILES | Ki
22 | C=C1C=C(C)CC(C)(C)C1Cc1ccc([N+](=O)[O-])c(C)c1 (stereo not given) | 28.8 nM
23 | C=C1CCC[C@@H](C)[C@@H]1Cc1cc(OC)c(Br)cc1O | 69 nM
24 | C=C1CC[C@@H](Br)C(C)(C)[C@@H]1Cc1cc(OC)c(Br)cc1O | 343 nM

molecular target: T4, Glucocorticoid receptor; conditions: not given

Row | SMILES | Ki
25 | C=C1C=C(C)CC(C)(C)C1Cc1ccc([N+](=O)[O-])c(C)c1 (stereo not given) | 6810 nM
26 | C=C1CCC[C@@H](C)[C@@H]1Cc1cc(OC)c(Br)cc1O | 2290 nM
27 | C=C1C=C(C)CC(C)(C)C1(O)Cc1ccc([N+](=O)[O-])cc1 (stereo not given) | 8510 nM
28 | C=C1C=C(C)CC(C)(C)C1Cc1cc(OC)c(Br)cc1O (stereo not given) | 1260 nM
29 | C=C1CC[C@@H](Br)C(C)(C)[C@@H]1Cc1cc(OC)c(Br)cc1O | 2470 nM
30 | C=C1C=C(C)C(Cc2cc(OC)c(Br)cc2O)C(C)(C)C1 (stereo not given) | 2670 nM
